Values after ≈ are worked out from the molar mass of the structure shown. “Also recorded” adds a separate entry of the source.
How the values were obtained:
Format in all cases: physicochemical
[1] = Stability test, 40° C./75% RH, analogous substances by HPLC
Method: (§1) The amount of analogous substances in the sample solution was measured by HPLC analysis. The handling of the device including data processing was in accordance with the manual provided with the device. (i.e., Prominence-i). About 2 mg of the exemplary sample of the present invention was dissolve in 4 mL of mobile phase A/mobile phase B mixture (17:3), and the resulting mixture was used as sample solution. • Column: CAPCELL PAK ADME manufactured by Shiseido (4.6×150 mm, 3 μm) • UV detection: 220 nm • Column temperature: 40° C. • Column flow rate: 1.0 mL/min • Mobile phase: A; 5 mM phosphate buffer, pH 6.2/Acetonitrile (4:1) • B: acetonitrile • Injection volume: 5 μL • Sample cooler temperature: 5° C. • Collection time: 40 minutes
The solid stability of the exemplary sample of the present invention and the free form obtained above was tested after the sample was stored at 40° C./75% RH (closed and open condition) for 2 weeks or 4 weeks. Open condition means that the lid of the glass bottle was removed and covered with Kimwipe. • Measurement points: 2 weeks and 4 weeks • Storage amount: about 50 to 60 mg • Storage container: brown glass bottle

[2] = Hygroscopicity, moisture adsorption/desorption test; details: for hygroscopicity: moisture adsorption/desorption test, FIG. 8; for mass change in moisture adsorption/desorption test: relative humidity of 95%, 25° C.
Method: The moisture adsorption/desorption test was carried out according to the following conditions.
Approximately 10 to 15 mg of the sample was filled in a dedicated quartz holder, and the weight of each sample at each humidity was continuously measured and recorded under the following conditions.

[3] = Optical purity stability by chiral HPLC; details: 40° C./75% RH (closed and open condition), 24 hours
Method: The optical purity was also measured by the following HPLC condition • Detector: UV at 240 nm • Column: […] IE (4.6×250 mm, 5 μm)/Daicel corp. • Column temperature: 40° C. • Mobile phase: n-hexane/ethanol/ethanolamine/acetic acid (65:35:0.5:0.2) • Flow rate: 1.0 mL/min • Injection: 5 μL • Sample temperature: 5° C. • Time span of measurement: 40 min
Compound—RR, RS,SS: 0.05%
The optical purity was measured also with added 0.2% optical isomer.
The solid stability of the exemplary sample of the present invention and the free form obtained
above was tested before and after the sample was stored at 40° C./75% RH (closed and open condition) for 24 hours.

[4] = Charging property (adhesion to spatula or glass bottle); details: adhesion to a spatula or a glass bottle
[5] = Solid stability test, 40° C./75% RH, 70° C., 80° C., by HPLC
Method: The solid stability of the exemplary sample of the present invention and the free form obtained above was tested after the sample was stored at 40° C./75% RH (open condition), 70° C. (closed) and 80° C. (closed) after 2 weeks or 4 weeks. Open condition means that the lid of the glass bottle was removed and covered with Kimwipe, 70° C. and 80° C. (closed). • Measurement points: 2 weeks and 4 weeks • Storage amount: about 30 mg • Storage container: brown glass bottle
as §1, with “6.5/Acetonitrile” for “6.2/Acetonitrile”

[6] = Solubility test, 37° C., 2 hours; details: for Solubility: 2 hours
Method: About 15 mg of the exemplary sample of the present invention was added to 1 mL of each solvent and was swelled at 37° C. for 2 hours under light resistant condition. After centrifugation, each supernatant was filtered, and 0.7 mL of a mixture of water and acetonitrile (1:1) was added to 0.1 ml of the filtrate.
Following of mobile phase: Control the gradient by mixing the mobile phase A and B as directed in the following table below • Flow rate: 1.0 mL per minutes • Time span of measurement: For 12 minutes after injection

SMILES | Chemical Purity (%) ([1]; 40° C./75% RH (Closed), 2 wks) | Total amount of analogous substances (%) ([1]; 40° C./75% RH (Closed), 2 wks) | Chemical Purity (%) ([1]; 40° C./75% RH (Closed), 4 wks) | Total amount of analogous substances (%) ([1]; 40° C./75% RH (Closed), 4 wks) | Chemical Purity (%) ([1]; 40° C./75% RH (Open), 2 wks) | Total amount of analogous substances (%) ([1]; 40° C./75% RH (Open), 2 wks) | Chemical Purity (%) ([1]; 40° C./75% RH (Open), 4 wks) | Total amount of analogous substances (%) ([1]; 40° C./75% RH (Open), 4 wks) | Chemical Purity (%) ([1]; Initial) | Total amount of analogous substances (%) ([1]; Initial) | mass change in moisture adsorption/desorption test [2] | change in the optical purity [3] | charging property [4] | Chemical Purity (%) ([5]; 40° C. 75% RH (Open), 4wks) | Total amount of analogous substances (%) ([5]; 40° C. 75% RH (Open), 4wks) | Chemical Purity (%) ([5]; 70° C. (Closed), 2 wks) | Total amount of analogous substances (%) ([5]; 70° C. (Closed), 2 wks) | Chemical Purity (%) ([5]; 70° C. (Closed), 4 wks) | Total amount of analogous substances (%) ([5]; 70° C. (Closed), 4 wks) | Chemical Purity (%) ([5]; 80° C. (Closed), 2 wks) | other results
Cc1ccc(F)c([C@@H](C)[C@H](NS(=O)(=O)c2ccc(Cl)cc2C(N)=O)c2n[nH]c(=O)o2)c1C [Comparative Example, 5-chloro-2-(N-((1S,2R)-2-(6-fluoro-2,3-dimethylphenyl)-1-(5-oxo-4,5-dihydro-1,3,4-oxadiazol-2-yl)propyl)sulfamoyl)benzamide] | 98.42 | 1.58 | 98.16 | 1.84 | 98.35 | 1.65 | 98.14 | 1.86 | 98.49 | 1.51 | about 3.8% | No significant change | high charging property | 97.97 | 2.03 | 97.31 | 2.69 | 96.39 | 3.61 | 95.90 | hygroscopicity ([2]; listed as free form): had hygroscopicity; charging property ([4]; listed as free form): high charging property; Total amount of analogous substances (%) ([5]; 80° C. (Closed), 2 wks): 4.10%; Chemical Purity (%) ([5]; 80° C. (Closed), 4 wks): 92.92%; Total amount of analogous substances (%) ([5]; 80° C. (Closed), 4 wks): 7.08%; Chemical Purity (%) ([5]; Initial): 98.33%; Total amount of analogous substances (%) ([5]; Initial): 1.67%
Cc1ccc(F)c([C@@H](C)[C@H](NS(=O)(=O)c2ccc(Cl)cc2C(N)=O)c2n[nH]c(=O)o2)c1C [Exemplary Sample, 5-chloro-2-(N-((1S,2R)-2-(6-fluoro-2,3-dimethylphenyl)-1-(5-oxo-4,5-dihydro-1,3,4-oxadiazol-2-yl)propyl)sulfamoyl)benzamide] | 98.67 | 1.33 | 98.62 | 1.38 | 98.67 | 1.33 | 98.60 | 1.40 | 98.67 | 1.33 | about 0.1% | No significant change | weak charging property; also recorded: low charging property | 99.69 | 0.31 | 99.67 | 0.33 | 99.68 | 0.32 | 99.66 | hygroscopicity [2]: almost no hygroscopicity; Solubility ([6]; 0.5% HPMC, 37° C.): 130 µg/mL (≈ 269 µM); Solubility ([6]; Acetate buffer (50 mM, pH 4.0), 37° C.): 260 µg/mL (≈ 538 µM); Solubility ([6]; Second fluid for dissolution test, pH 6.8, 37° C.): 610 µg/mL (≈ 1260 µM); change on XRD pattern ([6]; after 2 hr solubility study): No significant change; Total amount of analogous substances (%) ([5]; 80° C. (Closed), 2 wks): 0.34%; Chemical Purity (%) ([5]; 80° C. (Closed), 4 wks): 99.66%; Total amount of analogous substances (%) ([5]; 80° C. (Closed), 4 wks): 0.34%; Chemical Purity (%) ([5]; Initial): 99.69%; Total amount of analogous substances (%) ([5]; Initial): 0.31%

From patent US20250223270A1, “Sulfonamide Compounds and Use Thereof” (Taiho Pharmaceutical Co., Ltd., priority 2017, published 2025)
